Data taken from patent US10206394B2, “Herbicidal compounds” (Syngenta Participations AG, priority 2014, dated 2019).
Read-outs that look alike come from different tables or passages of the source.

Tests used:
Assay in all cases: Glasshouse assay for herbicidal activity (pre- and post-emergence), percentage phytotoxicity
Type in all cases: in vivo
[1] = tested on: Alopecurus myosuroides (ALOMY); conditions: Alopecurus myosuroides, Rate 250 g/ha, 100%=total damage, 0%=no damage
Summary of the method: (§1)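 Damage was rated visually as percent phytotoxicity, 100% meaning total kill, 20 days after pre-emergence application (made one day post-sowing) or 15 days after post-emergence application (made about 12 days post-sowing). Plants were grown under 16 h light, 65% humidity, warm species 24/18° C, cool 20/16° C.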

Lolium perenne (LOLPE) = conditions: Lolium perenne, Rate 250 g/ha, 100%=total damage, 0%=no damage
Summary of the method: as §1

[2] = tested on: Echinochloa crus-galli (ECHCG); conditions: Echinochloa crus-galli, Rate 250 g/ha, 100%=total damage, 0%=no damage
Summary of the method: as §1

Avena fatua (AVEFA) = conditions: Avena fatua, Rate 250 g/ha, 100%=total damage, 0%=no damage
Summary of the method: as §1

[3] = post-emergence, 360 h, post-emergence, visual assessment 15 DAA, read-out: Post-emergence herbicidal activity (percentage phytotoxicity) ALOMY POST
[4] = pre-emergence, 480 h, pre-emergence, visual assessment 20 DAA, read-out: Pre-emergence herbicidal activity (percentage phytotoxicity) ALOMY PRE
[5] = post-emergence, 360 h, post-emergence, visual assessment 15 DAA, read-out: Post-emergence herbicidal activity (percentage phytotoxicity) LOLPE POST
[6] = pre-emergence, 480 h, pre-emergence, visual assessment 20 DAA, read-out: Pre-emergence herbicidal activity (percentage phytotoxicity) LOLPE PRE
[7] = post-emergence, 360 h, post-emergence, visual assessment 15 DAA, read-out: Post-emergence herbicidal activity (percentage phytotoxicity) ECHCG POST
[8] = pre-emergence, 480 h, pre-emergence, visual assessment 20 DAA, read-out: Pre-emergence herbicidal activity (percentage phytotoxicity) ECHCG PRE
[9] = post-emergence, 360 h, post-emergence, visual assessment 15 DAA, read-out: Post-emergence herbicidal activity (percentage phytotoxicity) AVEFA POST
[10] = pre-emergence, 480 h, pre-emergence, visual assessment 20 DAA, read-out: Pre-emergence herbicidal activity (percentage phytotoxicity) AVEFA PRE

Structure (SMILES) | pest or weed control at 250 g/ha [1, 3] | pest or weed control at 250 g/ha [1, 4] | pest or weed control at 250 g/ha (Lolium perenne (LOLPE); [5]) | pest or weed control at 250 g/ha (Lolium perenne (LOLPE); [6]) | pest or weed control at 250 g/ha [2, 7] | pest or weed control at 250 g/ha [2, 8] | pest or weed control at 250 g/ha (Avena fatua (AVEFA); [9]) | pest or weed control at 250 g/ha (Avena fatua (AVEFA); [10])
C=Cc1cc(-c2ncc(F)cc2F)cc(C)c1C1C(=O)CC(CC(=O)NC(C)(C)C)C1=O (centres unmarked) [Compound B382, N-tert-butyl-2-[3-[4-(3,5-difluoro-2-pyridyl)-2-methyl-6-vinyl-phenyl]-2,4-dioxo-cyclopentyl]acetamide] | 100% | 60% | 100% | 60% | 100% | 60% | 100% | 40%
Cc1cc(-c2ccc(F)cn2)cc(C)c1C1C(=O)CC(CC(=O)NCc2cccc(F)c2)C1=O (centres unmarked) [Compound B383] | 100% | 90% | 90% | 100% | 90% | 100% | 100% | 90%
Cc1cc(-c2ccc(F)cn2)cc(C)c1C1C(=O)CC(CC(=O)NCc2cccc(Br)c2)C1=O (centres unmarked) [Compound B384] | 90% | 80% | 90% | 80% | 40% | 90% | 100% | 80%
Cc1cc(-c2ccc(F)cn2)cc(C)c1C1C(=O)CC(CC(=O)NC(C)C)C1=O (centres unmarked) [Compound B385] | 100% | 100% | 100% | 100% | 100% | 100% | 100% | 100%
Cc1cc(-c2ccc(F)cn2)cc(C)c1C1C(=O)CC(CC(=O)NCC2CC2)C1=O (centres unmarked) [Compound B386] | 100% | 100% | 90% | 100% | 40% | 100% | 100% | 100%
C#CCNC(=O)CC1CC(=O)C(c2c(C)cc(-c3ccc(F)cn3)cc2C)C1=O (centres unmarked) [Compound B387] | 90% | 90% | 90% | 90% | 90% | 100% | 100% | 100%
C#CC(C)(C)NC(=O)CC1CC(=O)C(c2c(C)cc(-c3ccc(F)cn3)cc2C)C1=O (centres unmarked) [Compound B388] | 90% | 90% | 90% | 90% | 100% | 100% | 100% | 90%
COCC(C)(C)NC(=O)CC1CC(=O)C(c2c(C)cc(-c3ccc(F)cn3)cc2C)C1=O (centres unmarked) [Compound B389] | 100% | 90% | 90% | 100% | 100% | 100% | 100% | 90%
C=CC(C)NC(=O)CC1CC(=O)C(c2c(C)cc(-c3ccc(F)cn3)cc2C)C1=O (centres unmarked) [Compound B390] | 100% | 100% | 90% | 100% | 90% | 100% | 100% | 100%
COCC(C)NC(=O)CC1CC(=O)C(c2c(C)cc(-c3ccc(F)cn3)cc2C)C1=O (centres unmarked) [Compound B391] | 90% | 90% | 90% | 100% | 100% | 100% | 100% | 100%
